Assay results taken from patent US20030104507A1, “Method for detection of ATP” (priority 2001, published 2003).

Tested on: ATPase activity endogenous to L929 cell lysate
Experiment: Detergent inhibition of ATPase endogenous to L929 cell lysate (ATP remaining by luciferase luminescence, 22° C.)
Format: biochemical
Parameters: key to Relative ATPase Activity, slope det/slope lysate: slope with detergent / slope without; ≥1.0 = 100% activity, 0.5 = 50%
Experimental: Three separate detergents in each of four detergent classes were tested: anionic [SDS (Sodium dodecyl sulfate), Bioterge (an α olefin sulfate), and sodium deoxycholate], nonionic [TRITON X-100, BigCHAP (N,N-bis(3-D-Gluconamidopropyl)cholamide) and THESIT (polyethylene glycol 400 dodecyl ether, Fluka, #88315)], cationic [BDDABr (Benzyldimethyldodecylammonium bromide), CTAB (Cetyltrimethylammonium bromide), and DTAB (dodecyltrimethylammonium bromide)] and zwitterionic [CHAPS (3[(3-Cholamidopropyl)dimethylammonio]propanesulfonic acid), CHAPSO (3-([3-Cholamidopropyl]dimethylammonio)-2-hydroxy-1-propanesulfonate), and Sulfobetaine 3-10 ([…]-N,N-dimethyl-3-ammonio-1-propanesulfonate)]. Detergents were obtained from Sigma, Fluka and Aldrich.
L929 cells (ATCC CCL-1; 1.5×10^5 cells/ml) in F12/DMEM (Hyclone, SH30023) containing 10% horse serum (Hyclone, SH30074) were frozen and thawed for four cycles to create a cell lysate. Then 50 μl of stock detergent solutions [10%, 5.0%, 1.0%, and 0.5% (w/v)] were separately added to 450 μl cell lysate, creating a final detergent concentration in the cell lysate sample of 1.0%, 0.5%, 0.1%, and 0.05%, respectively (these percentage values are those used in Tables D and E herein below). Control samples contained either lysate only or 1.0 μM ATP in 15 mM HEPES buffer (pH 7.5). All samples were incubated at 22° C. (room temperature) for the duration of the experiment.
At various timepoints, 20 μl from each sample/detergent mixture was added to a 96-well luminometer plate in triplicate, and then 100 μl of a solution (“luciferase-luciferin” or “L/L reagent”) containing 25 mM HEPES buffer (pH 7.5), 40 μg luciferase enzyme LucPpe2m146 (Promega, E140), 100 μM luciferin (Promega), and 10 mM MgSO4 was added to each well. The L/L reagent was stored at 4° C. for the duration of the experiment and then allowed to reach ambient temperature just before assaying. After mixing the contents of the plate, light output was measured with a Dynex MLX microtiter plate luminometer (Chantilly, Va.), 0.5 second reads per well with the first measurement taken five minutes after the detergent solution was combined with the sample. The average relative light units and the timepoint at which it was measured (rlu; Table D) and percent of remaining luciferase activity at the timepoint (Table E) are reported; controls were run with each set of experimental conditions as indicated. The cationic and anionic detergents were assayed on one day with one set of controls. The zwitterionic and nonionic detergents were assayed on a separate day with a separate set of controls. The DTAB at 0.5% was assayed on both days (1 and 2).
The experiment was performed as detailed in Example 1. The average relative light unit values and the percent of ATP remaining values are listed below in Table F and G respectively.
The log of the percent of ATP remaining after original timepoint values from Table E and Table G were plotted on the y axis against time (in minutes) on the x axis. The slope of the line generated by these values in the presence of detergent was divided by the slope of the line generated by the values in the absence of detergent (lysate control) resulting in the Relative ATPase Activity values listed below in Table H.
A relative activity value of 1.0 or greater indicates 100% cellular ATPase activity at the concentration of detergent tested. A relative activity value of 0.5 indicates a two-fold (or 50%) decrease in the level of cellular ATPase activity at the concentration of detergent tested when compared to the ATPase activity level in the absence of the detergent. A relative activity value of 0.2 indicates a five-fold (or 80%) decrease in the level of cellular ATPase activity at the concentration of detergent tested when compared to the ATPase activity level in the absence of the detergent.

C[C@H](CCC(=O)N(CCCNC(=O)[C@H](O)[C@@H](O)[C@H](O)[C@H](O)CO)CCCNC(=O)[C@H](O)[C@@H](O)[C@H](O)[C@H](O)CO)[C@H]1CC[C@H]2[C@@H]3[C@H](O)C[C@@H]4C[C@H](O)CC[C@]4(C)[C@H]3C[C@H](O)[C@]12C [BIGCHAP, N,N-bis(3-D-Gluconamidopropyl)cholamide]
Average Relative Light Unit Values (0.05% detergent, 5 min): 6410.42 rlu
Percent ATP Remaining (0.05% detergent, 5 min): 100%
Average Relative Light Unit Values (0.05% detergent, 75 min): 2260.45 rlu
Percent ATP Remaining (0.05% detergent, 75 min): 35.3%
Average Relative Light Unit Values (0.05% detergent, 169 min): 1036.69 rlu
Percent ATP Remaining (0.05% detergent, 169 min): 16.2%
Average Relative Light Unit Values (0.05% detergent, 222 min): 487.72 rlu
Percent ATP Remaining (0.05% detergent, 222 min): 7.6%
Average Relative Light Unit Values (0.05% detergent, 260 min): 238.44 rlu
Percent ATP Remaining (0.05% detergent, 260 min): 3.7%
Relative ATPase Activity, slope det/slope lysate (0.05 percent detergent): 1.069
Slope (log percent ATP remaining vs time in minutes) (0.05 percent detergent): −0.0056
Average Relative Light Unit Values (0.1% detergent, 5 min): 6607.01 rlu
Percent ATP Remaining (0.1% detergent, 5 min): 100%
Average Relative Light Unit Values (0.1% detergent, 75 min): 2087.01 rlu
Percent ATP Remaining (0.1% detergent, 75 min): 31.6%
Average Relative Light Unit Values (0.1% detergent, 169 min): 1363.07 rlu
Percent ATP Remaining (0.1% detergent, 169 min): 20.6%
Average Relative Light Unit Values (0.1% detergent, 222 min): 634.92 rlu
Percent ATP Remaining (0.1% detergent, 222 min): 9.6%
Average Relative Light Unit Values (0.1% detergent, 260 min): 301.55 rlu
Percent ATP Remaining (0.1% detergent, 260 min): 4.6%
Relative ATPase Activity, slope det/slope lysate (0.10 percent detergent): 0.968
Slope (log percent ATP remaining vs time in minutes) (0.10 percent detergent): −0.0051
Average Relative Light Unit Values (0.5% detergent, 5 min): 7438.53 rlu
Percent ATP Remaining (0.5% detergent, 5 min): 100%
Average Relative Light Unit Values (0.5% detergent, 75 min): 3618.22 rlu
Percent ATP Remaining (0.5% detergent, 75 min): 48.6%
Average Relative Light Unit Values (0.5% detergent, 169 min): 2092.69 rlu
Percent ATP Remaining (0.5% detergent, 169 min): 28.1%
Average Relative Light Unit Values (0.5% detergent, 222 min): 1144.80 rlu
Percent ATP Remaining (0.5% detergent, 222 min): 15.4%
Average Relative Light Unit Values (0.5% detergent, 260 min): 677.61 rlu
Percent ATP Remaining (0.5% detergent, 260 min): 9.1%
Relative ATPase Activity, slope det/slope lysate (0.50 percent detergent): 0.782
Slope (log percent ATP remaining vs time in minutes) (0.50 percent detergent): −0.0041
Average Relative Light Unit Values (1.0% detergent, 5 min): 7576.05 rlu
Percent ATP Remaining (1.0% detergent, 5 min): 100%
Average Relative Light Unit Values (1.0% detergent, 75 min): 4043.35 rlu
Percent ATP Remaining (1.0% detergent, 75 min): 53.4%
Average Relative Light Unit Values (1.0% detergent, 169 min): 2474.59 rlu
Percent ATP Remaining (1.0% detergent, 169 min): 32.7%
Average Relative Light Unit Values (1.0% detergent, 222 min): 1374.29 rlu
Percent ATP Remaining (1.0% detergent, 222 min): 18.1%
Average Relative Light Unit Values (1.0% detergent, 260 min): 822.65 rlu
Percent ATP Remaining (1.0% detergent, 260 min): 10.9%
Relative ATPase Activity, slope det/slope lysate (1.00 percent detergent): 0.725
Slope (log percent ATP remaining vs time in minutes) (1.00 percent detergent): −0.0038
